Measured values taken from patent publication US10189838B2, “Aza-oxo-indoles for the treatment and prophylaxis of respiratory syncytial virus infection” (Hoffmann-La Roche Inc., priority 2013, dated 2019).

Assays:
RSV Long strain = assay: Viral cytopathic effect (CPE) assay, RSV Long strain; format: cell-based, Respiratory Syncytial Virus; conditions: human respiratory syncytial virus, 144 h, cell viability after 6 days (Cell Counting kit-8)
Procedure, shortened: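 Cells in DMEM with 10% FBS infected next day with RSV Long (A subtype) at a dose giving ~80–90% CPE after 6 days, alongside half-log compound dilutions. Viability at day 6 by CCK-8, absorbance 450 nm referenced to 630 nm; EC50 is concentration giving 50% of maximal protection.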

[1] = Single dose PK in male ICR mouse (IV and PO); format: in vivo; conditions: male ICR mice; for AUC(0-t) / bioavailability: mouse, plasma; for bioavailability: read-out: F (bioavailability)
Description: The single dose PK in male ICR mouse was performed to assess their pharmacokinetic properties. Two groups of animals were dosed via either bolus intravenous (IV) or oral gavage (PO) of the respective compound. The animals for oral administration were fasted overnight prior to dosing and food was resumed 4 hours postdose. Blood samples (approximately 400 μL) were collected via cardiac puncture after euthanasia by carbon dioxide inhalation at 2 minutes, 5 minutes, 15 minutes, 30 minutes, 1 hour, 2 hours, 4 hours, 6 hours, 8 hours, and 24 hours postdose for IV group, and at 5 minutes, 15 minutes, 30 minutes, 1 hour, 2 hours, 4 hours, 6 hours, 8 hours, and 24 hours postdose for PO group. Blood samples were placed into tubes containing sodium heparin and centrifuged at 8000 rpm for 6 minutes at 4° C. to separate plasma from the samples.
Following centrifugation, the resulting plasma was transferred to clean tubes for bioanalysis on LC/MS/MS. The pharmacokinetic parameters were calculated using non-compartmental module of WinNonlin® Professional 5.2.

RSV infection = conditions: selected infants, intramuscularly 15 mg/kg once a month for the RSV season; cited from earlier work

CS(=O)(=O)CCn1c(CN2C(=O)C3(CC3)c3ccncc32)cc2cc(Cl)cnc21 [Example 2-6, 1′-({5-Chloro-1-[2-(methylsulfonyl)ethyl]-1H-pyrrolo[2,3-b]pyridin-2-yl}methyl)spiro[cyclopropane-1,3′-pyrrolo[2,3-c]pyridin]-2′(1′H)-one]
EC50 (RSV Long strain): 27.3 nM
CLz ([1]; IV 5 mg/kg): 23.7 mL/min/kg
t1/2z ([1]; IV 5 mg/kg): 0.724 h
F (bioavailability) ([1]; PO 25 mg/kg): 58.3%
t1/2z ([1]; PO 25 mg/kg): 0.701 h
AUC(0-t) ([1]; IV 5 mg/kg): 3510 ng·h/mL
AUC(0-t) ([1]; PO 25 mg/kg): 10200 ng·h/mL

CS(=O)(=O)CCn1c(CN2C(=O)C3(CC3)c3ccncc32)nc2cc(Cl)ccc21 [Example 34-1, 1′-({5-Chloro-1-[2-(methylsulfonyl)ethyl]-1H-benzimidazol-2-yl}methyl)spiro[cyclopropane-1,3′-pyrrolo[2,3-c]pyridin]-2′(1′H)-one]
EC50 (RSV Long strain): 12 nM
CLz ([1]; IV 1.45 mg/kg): 64.8 mL/min/kg
t1/2z ([1]; IV 1.45 mg/kg): 10.2 h
t1/2z ([1]; PO 25 mg/kg): 2.98 h
AUC(0-t) ([1]; IV 1.45 mg/kg): 373 ng·h/mL
AUC(0-t) ([1]; PO 25 mg/kg): 3280 ng·h/mL
bioavailability ([1]; PO 25 mg/kg): 51%

CS(=O)(=O)CCn1c(CN2C(=O)C3(CC3)c3c(F)cccc32)nc2cc(Cl)ccc21 [Example 34-2, 1′-({5-Chloro-1-[2-(methylsulfonyl)ethyl]-1H-benzimidazol-2-yl}methyl)-4′-fluorospiro[cyclopropane-1,3′-indol]-2′(1′H)-one]
EC50 (RSV Long strain): 20 nM

CS(=O)(=O)CCn1c(CN2C(=O)C3(CC3)c3c(Cl)cccc32)nc2cc(Cl)ccc21 [Example 34-3, 4′-Chloro-1′-({5-chloro-1-[2-(methylsulfonyl)ethyl]-1H-benzimidazol-2-yl}methyl)spiro[cyclopropane-1,3′-indol]-2′(1′H)-one]
EC50 (RSV Long strain): 66 nM

CS(=O)(=O)CCn1c(CN2C(=O)C3(CC3)c3c(Br)cccc32)nc2cc(Cl)ccc21 [Example 34-4, 4′-Bromo-1′-({5-chloro-1-[2-(methylsulfonyl)ethyl]-1H-benzimidazol-2-yl}methyl)spiro[cyclopropane-1,3′-indol]-2′(1′H)-one]
EC50 (RSV Long strain): 205 nM

CCS(=O)(=O)CCn1c(CN2C(=O)C3(CC3)c3ccncc32)nc2cc(Cl)ccc21 [Example 34-5, 1′-({5-Chloro-1-[2-(ethylsulfonyl)ethyl]-1H-benzimidazol-2-yl}methyl)spiro[cyclopropane-1,3′-pyrrolo[2,3-c]pyridin]-2′(1′H)-one]
EC50 (RSV Long strain): 13 nM

O=C1N(Cc2nc3cc(Cl)ccc3n2CCC2CS(=O)(=O)C2)c2cnccc2C12CC2 [Example 35, 1′-({5-Chloro-1-[2-(1,1-dioxidothietan-3-yl)ethyl]-1H-benzimidazol-2-yl}methyl)spiro[cyclopropane-1,3′-pyrrolo[2,3-c]pyridin]-2′(1′H)-one]
EC50 (RSV Long strain): 1.1 nM

CS(=O)(=O)CCCn1c(CN2C(=O)C3(CC3)c3ccncc32)nc2cc(Cl)ccc21 [Example 36-1, 1′-({5-Chloro-1-[3-(methylsulfonyl)propyl]-1H-benzimidazol-2-yl}methyl)spiro[cyclopropane-1,3′-pyrrolo[2,3-c]pyridin]-2′(1′H)-one]
EC50 (RSV Long strain): 2 nM

O=C1N(Cc2nc3cc(Cl)ccc3n2CCS(=O)(=O)C2CC2)c2cnccc2C12CC2 [Example 36-2, 1′-({5-Chloro-1-[2-(cyclopropylsulfonyl)ethyl]-1H-benzimidazol-2-yl}methyl)spiro[cyclopropane-1,3′-pyrrolo[2,3-c]pyridin]-2′(1′H)-one]
EC50 (RSV Long strain): 8 nM

CS(=O)(=O)CCn1c(CN2C(=O)C3(CC3)c3ccncc32)nc2cc(Cl)cc(F)c21 [Example 37-1, 1′-({5-Chloro-7-fluoro-1-[2-(methylsulfonyl)ethyl]-1H-benzimidazol-2-yl}methyl)spiro[cyclopropane-1,3′-pyrrolo[2,3-c]pyridin]-2′(1′H)-one]
EC50 (RSV Long strain): 9 nM
CLz ([1]; IV 2 mg/kg): 44.4 mL/min/kg
t1/2z ([1]; IV 2 mg/kg): 0.976 h
t1/2z ([1]; PO 25 mg/kg): 3.74 h
AUC(0-t) ([1]; IV 2 mg/kg): 751 ng·h/mL
AUC(0-t) ([1]; PO 25 mg/kg): 9290 ng·h/mL
bioavailability ([1]; PO 25 mg/kg): 99%

CS(=O)(=O)CCn1c(CN2C(=O)C3(CC3)c3ccncc32)nc2cc(Cl)cc(Cl)c21 [Example 37-2, 1′-({5,7-Dichloro-1-[2-(methylsulfonyl)ethyl]-1H-benzimidazol-2-yl}methyl)spiro[cyclopropane-1,3′-pyrrolo[2,3-c]pyridin]-2′(1′H)-one]
EC50 (RSV Long strain): 16.8 nM

O=C1N(Cc2nc3cc(Cl)ccc3n2CC2COC2)c2cnccc2C12CC2 [Example 38-1, 1′-{[5-Chloro-1-(oxetan-3-ylmethyl)-1H-benzimidazol-2-yl]methyl}spiro[cyclopropane-1,3′-pyrrolo[2,3-c]pyridin]-2′(1′H)-one]
EC50 (RSV Long strain): 3 nM

O=C1N(Cc2nc3cc(Cl)ccc3n2CCC2COC2)c2cnccc2C12CC2 [Example 38-2, 1′-({5-Chloro-1-[2-(oxetan-3-yl)ethyl]-1H-benzimidazol-2-yl}methyl)spiro[cyclopropane-1,3′-pyrrolo[2,3-c]pyridin]-2′(1′H)-one]
EC50 (RSV Long strain): 3 nM

O=C1N(Cc2nc3cc(Cl)cc(F)c3n2CC2COC2)c2cnccc2C12CC2 [Example 38-3, 1′-{[5-Chloro-7-fluoro-1-(oxetan-3-ylmethyl)-1H-benzimidazol-2-yl]methyl}spiro[cyclopropane-1,3′-pyrrolo[2,3-c]pyridin]-2′(1′H)-one]
EC50 (RSV Long strain): 30 nM

NC1(Cn2c(CN3C(=O)C4(CC4)c4ccncc43)nc3cc(Cl)ccc32)COC1 [Example 39-1, 1′-({1-[(3-Aminooxetan-3-yl)methyl]-5-chloro-1H-benzimidazol-2-yl}methyl)spiro[cyclopropane-1,3′-pyrrolo[2,3-c]pyridin]-2′(1′H)-one]
EC50 (RSV Long strain): 18 nM

NC1(Cn2c(CN3C(=O)C4(CC4)c4ccncc43)nc3cc(Cl)cc(F)c32)COC1 [Example 39-2, 1′-({1-[(3-Aminooxetan-3-yl)methyl]-5-chloro-7-fluoro-1H-benzimidazol-2-yl}methyl)spiro[cyclopropane-1,3′-pyrrolo[2,3-c]pyridin]-2′(1′H)-one]
EC50 (RSV Long strain): 227 nM

palivizumab
reduction of hospitalization rate caused by RSV infection (RSV infection): 45-55%
